In the CheMixHub viscosity set:

Test: xn = mol fraction of the nth substance listed

O=[N+]([O-])c1ccccc1 + CCO
viscosity [mPa·s], 101.33 kPa
Conditions | x1 = 0.0399 | x1 = 0.0856 | x1 = 0.1382 | x1 = 0.1997 | x1 = 0.2723 | x1 = 0.3595 | x1 = 0.4661 | x1 = 0.5995 | x1 = 0.7711
298.15 K | 1.06 | 1.048 | 1.061 | 1.073 | 1.116 | 1.166 | 1.201 | 1.317 | 1.44
303.15 K | 0.9662 | 0.9579 | 0.9691 | 0.9809 | 1.01 | 1.068 | 1.085 | 1.207 | 1.312

C=COCCCC + CCOC(=O)OCC
viscosity [mPa·s], 100 kPa
Conditions | x2 = 0.1011 | x2 = 0.2003 | x2 = 0.2975 | x2 = 0.4029 | x2 = 0.4992 | x2 = 0.6014 | x2 = 0.6975 | x2 = 0.7978 | x2 = 0.9004
303.15 K | 0.406 | 0.429 | 0.452 | 0.48 | 0.509 | 0.542 | 0.575 | 0.614 | 0.656
308.15 K | 0.386 | 0.406 | 0.43 | 0.454 | 0.483 | 0.515 | 0.547 | 0.583 | 0.62
313.15 K | 0.365 | 0.383 | 0.403 | 0.426 | 0.451 | 0.481 | 0.511 | 0.545 | 0.582

C=COCCCC + CCOC(=O)c1ccccc1
viscosity [mPa·s], 101 kPa
Conditions | x2 = 0.0939 | x2 = 0.1857 | x2 = 0.2804 | x2 = 0.3768 | x2 = 0.4748 | x2 = 0.557 | x2 = 0.6781 | x2 = 0.7812 | x2 = 0.8898
303.15 K | 0.438 | 0.499 | 0.573 | 0.663 | 0.769 | 0.877 | 1.061 | 1.25 | 1.482
308.15 K | 0.425 | 0.482 | 0.55 | 0.633 | 0.729 | 0.827 | 0.995 | 1.163 | 1.372
313.15 K | 0.404 | 0.458 | 0.519 | 0.592 | 0.678 | 0.762 | 0.907 | 1.054 | 1.231

CCI + CCOC(C)=O
Conditions | viscosity [mPa·s]
298.15 K, 101 kPa, x2 = 0.7859 | 0.462

O=[N+]([O-])c1ccccc1 + CCOC(C)=O
viscosity [mPa·s], 101 kPa
Conditions | 298.15 K | 308.15 K
x1 = 0.1753 | 0.582 | –
x1 = 0.4777 | 0.889 | –
x1 = 0.6887 | 1.204 | –
x2 = 0.0466 | 1.71 | 1.482
x2 = 0.1486 | 1.535 | 1.346
x2 = 0.2512 | 1.364 | 1.208
x2 = 0.3117 | 1.204 | –
x2 = 0.3496 | 1.206 | 1.077
x2 = 0.4483 | 1.057 | 0.95
x2 = 0.4935 | 0.992 | 0.893
x2 = 0.5223 | 0.889 | –
x2 = 0.5538 | 0.909 | 0.821
x2 = 0.6497 | 0.785 | 0.711
x2 = 0.7513 | 0.666 | 0.604
x2 = 0.8247 | 0.582 | –
x2 = 0.8488 | 0.564 | 0.512
x2 = 0.9411 | 0.478 | 0.433

ClC(Cl)=C(Cl)Cl + CCOCCO
viscosity [mPa·s], 101.33 kPa
Conditions | x1 = 0.1174 | x1 = 0.2104 | x1 = 0.323 | x1 = 0.4392 | x1 = 0.5276 | x1 = 0.6168 | x1 = 0.7085 | x1 = 0.8053 | x1 = 0.9054
303.15 K | 1.513 | 1.396 | 1.272 | 1.149 | 1.065 | 0.992 | 0.926 | 0.869 | 0.822
313.15 K | 1.201 | 1.132 | 1.049 | 0.968 | 0.91 | 0.857 | 0.809 | 0.769 | 0.739

CCCCCO + CN(C)C=O
298.15 K, 101 kPa
Conditions | viscosity [mPa·s]
x2 = 0.4261 | 1.395
x2 = 0.5467 | 1.568

O=[N+]([O-])c1ccccc1 + CN(C)C=O
viscosity [mPa·s]
Conditions | 298.15 K | 303.15 K | 308.15 K | 313.15 K
101.3 kPa, x1 = 0.0953 | 0.926 | 0.8671 | 0.8133 | 0.7628
101.3 kPa, x1 = 0.1999 | 1.026 | 0.9585 | 0.8949 | 0.8362
101.3 kPa, x1 = 0.3027 | 1.129 | 1.053 | 0.9803 | 0.9134
101.3 kPa, x1 = 0.4044 | 1.231 | 1.146 | 1.075 | 0.9878
101.3 kPa, x1 = 0.504 | 1.338 | 1.246 | 1.154 | 1.07
101.3 kPa, x1 = 0.6035 | 1.441 | 1.332 | 1.232 | 1.14
101.3 kPa, x1 = 0.7034 | 1.543 | 1.423 | 1.313 | 1.214
101.3 kPa, x1 = 0.8011 | 1.638 | 1.505 | 1.389 | 1.28
101.3 kPa, x1 = 0.8937 | 1.74 | 1.595 | 1.469 | 1.351
101.33 kPa, x2 = 0.1017 | – | 1.524 | – | 1.307
101.33 kPa, x2 = 0.2145 | – | 1.416 | – | 1.22
101.33 kPa, x2 = 0.3053 | – | 1.331 | – | –
101.33 kPa, x2 = 0.3083 | – | – | – | 1.157
101.33 kPa, x2 = 0.404 | – | 1.246 | – | 1.091
101.33 kPa, x2 = 0.5021 | – | 1.165 | – | 1.023
101.33 kPa, x2 = 0.6003 | – | 1.085 | – | 0.952
101.33 kPa, x2 = 0.6968 | – | 1.002 | – | 0.884
101.33 kPa, x2 = 0.7975 | – | 0.917 | – | 0.809
101.33 kPa, x2 = 0.8975 | – | 0.826 | – | 0.738

c1ccccc1 + CN(C)C=O
298.15 K
Conditions | viscosity [mPa·s]
101 kPa, x1 = 0.0257 | 0.799
101 kPa, x1 = 0.0509 | 0.795
101 kPa, x1 = 0.1031 | 0.783
101 kPa, x1 = 0.1578 | 0.765
101 kPa, x1 = 0.2083 | 0.759
101 kPa, x1 = 0.2579 | 0.75
101 kPa, x1 = 0.3129 | 0.7455
101 kPa, x1 = 0.3651 | 0.739
101 kPa, x1 = 0.4202 | 0.725
101 kPa, x1 = 0.469 | 0.711
101 kPa, x1 = 0.5167 | 0.7175
101 kPa, x1 = 0.5779 | 0.7
101 kPa, x1 = 0.6247 | 0.697
101 kPa, x1 = 0.6758 | 0.6825
101 kPa, x1 = 0.7167 | 0.671
101 kPa, x1 = 0.7855 | 0.653
101 kPa, x1 = 0.8262 | 0.643
101 kPa, x1 = 0.8944 | 0.6255
101 kPa, x1 = 0.9372 | 0.615
101 kPa, x1 = 0.9409 | 0.614
101 kPa, x1 = 0.9761 | 0.605
101.33 kPa, x1 = 0.1225 | 0.7645
101.33 kPa, x1 = 0.2494 | 0.7375
101.33 kPa, x1 = 0.4823 | 0.6925
101.33 kPa, x1 = 0.6236 | 0.6672
101.33 kPa, x1 = 0.7499 | 0.6477
101.33 kPa, x1 = 0.8733 | 0.6245

CCCCCCC + CO
298.15 K
Conditions | viscosity [mPa·s]
101 kPa, x1 = 0.01 | 0.535
101 kPa, x1 = 0.02 | 0.5317
101 kPa, x1 = 0.03 | 0.5293
101 kPa, x1 = 0.04 | 0.5277
101 kPa, x1 = 0.05 | 0.5257
101 kPa, x1 = 0.06 | 0.5246
101 kPa, x1 = 0.08 | 0.5247
101 kPa, x1 = 0.09 | 0.5214
101.33 kPa, x2 = 0.0171 | 0.401
101.33 kPa, x2 = 0.0593 | 0.401
101.33 kPa, x2 = 0.0865 | 0.404
101.33 kPa, x2 = 0.1148 | 0.403
101.33 kPa, x2 = 0.9043 | 0.548
101.33 kPa, x2 = 0.9241 | 0.549
101.33 kPa, x2 = 0.9474 | 0.552
101.33 kPa, x2 = 0.9653 | 0.554
101.33 kPa, x2 = 0.9765 | 0.553

ClC(Cl)=C(Cl)Cl + CO
viscosity [mPa·s], 101.33 kPa
Conditions | x2 = 0.1436 | x2 = 0.2974 | x2 = 0.456 | x2 = 0.6044 | x2 = 0.7514 | x2 = 0.9006
293.15 K | 0.762 | 0.721 | 0.683 | 0.639 | 0.585 | 0.535
303.15 K | 0.705 | 0.667 | 0.63 | 0.59 | 0.552 | 0.512
313.15 K | 0.6515 | 0.622 | 0.592 | 0.561 | 0.529 | 0.497
